Source: article PMC10127257, “Engineering mutually orthogonal PylRS/tRNA pairs for dual encoding of functional histidine analogues” (Protein Science : A Publication of the Protein Society, 2023)

Target: T1, MaPylRS^IFGFF (Methanomethylophilus alvi, UniProt M9SC49, L125I/Y126F/M129G/V168F/Y206F)
T1 construct: gene MMALV_11280; C-terminal 6-His tag; pET29, E. coli BL21(DE3), Ni-NTA
Assay: X-ray crystallography, […] Å
Type: binding
Conditions: MgCl2, pH 8; three Mg2+ ions; triethylene glycol in the amino acid pocket

T1 sequence (M9SC49 entry or part of it L125I/Y126F/M129G/V168F/Y206F): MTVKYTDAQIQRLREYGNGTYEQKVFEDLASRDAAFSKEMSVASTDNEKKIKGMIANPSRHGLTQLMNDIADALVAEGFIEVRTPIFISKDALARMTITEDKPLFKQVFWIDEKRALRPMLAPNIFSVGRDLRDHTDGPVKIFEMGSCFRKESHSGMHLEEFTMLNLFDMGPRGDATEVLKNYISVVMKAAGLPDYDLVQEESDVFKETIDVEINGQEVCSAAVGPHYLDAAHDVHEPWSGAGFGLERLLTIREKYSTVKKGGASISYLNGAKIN

Nc1ncnc2c1ncn2[C@@H]1O[C@H](COP(=O)(O)OP(=O)(O)NP(=O)(O)O)[C@@H](O)[C@H]1O [AMP-PNP]
X-ray crystallography, 1.8 Å: bound to the nonreactive ATP analogue adenylyl‐imidodiphosphate (AMP‐PNP, PDB: 8C49
